Patent US12031171B2, “Fatty acid esters against infections in fermentations” (PURAC BIOCHEM BV, priority 2016, dated 2024)

Tests used:
[1] = tested on: Clostridium perfringens ATCC 13124; assay type: cell-based; details: brain heart infusion broth, pH 6.0, 30° C., 0% oxygen
[2] = tested on: Clostridium pasteurianum JEG2; assay: Mixed culture fermentation of Escherichia coli TG128 with Clostridium pasteurianum JEG2 (7 litre fermenters); assay type: cell-based; details: Fermenter 3, mixed culture
[3] = 0.05% (w/v) added, 25-35 hours, pH 6.5, 37° C.

With `CCCCCCCCCC(=O)OC(C)C(=O)O` (stereo not shown) [Decanoyl-lactylate] the MIC value [1] was 0.04 % (w/v).

For `CCCCCCCCCCCCCC(=O)O` [Tetradecanoic acid, reference compound], the MIC value [1] was >0.01 % (w/v).

`CCCCCCCCC=CCCCCCCCC(=O)OC(C)C(=O)O` (stereo not shown) [Olacta, Octadecenoyl-lactylate] was tested, and the MIC value [1] was 0.02 % (w/v).

With `CCCCCCCCCCCCCC(=O)OC(C)C(=O)O` (stereo not shown) [Tetradecanoyl-lactylate, tetradecanoyl-lactylate] the MIC value [1] was 0.001 % (w/v), the “results of Fermenter 3 compared with those at 0.05% (w/v)” value ([2]; 0.025% (w/v) added) was “Exactly the same results” and the “endospore bearing cells, microscopic examination of the culture broth” value ([2]; 0.05% (w/v) added) was “no endospore bearing cells”. The “foam and putrid smell produced by the fermenter” value ([2]; 0.05% (w/v) added) was “no foam or putrid smell”, the “impurity profile of fermentation broth compared with the Escherichia coli TG128 standard fermentation (Fermenter 1)” value ([2]; 0.05% (w/v) added) was “no difference in impurity profile” and the “performance of Fermenter 3 compared with Fermenter 1 (pure culture of Escherichia coli TG128)” value ([2]; 0.05% (w/v) added) was “in every respect similar”. For the same compound, the 2-hydroxy butyric acid [2, 3] was under 0.1 g/L, the “% enantiomeric excess: (R − S)/(R + S)” value [2, 3] was 99.3% and the Acetic acid [2, 3] was 0.3 g/L. For the same compound, the Benzoic acid [2, 3] was under 0.3 g/L, the Butyric acid [2, 3] was 0.1 g/L and the Citric acid [2, 3] was under 0.5 g/L. The Ethanol [2, 3] was 0.08 g/L, the Formic acid [2, 3] was under 0.2 g/L and the Fumaric acid [2, 3] was under 0.2 g/L. It also gave a Glycolic acid [2, 3] of under 0.5 g/L, a Maleic acid [2, 3] of under 0.2 g/L and a Malic acid [2, 3] of under 0.5 g/L. For the same compound, the Oxalic acid [2, 3] was under 0.2 g/L, the Propionic acid [2, 3] was under 0.1 g/L and the Pyruvic acid [2, 3] was under 0.1 g/L. The R-lactate [2, 3] was 81.8 g/L, the S-lactate [2, 3] was 0.3 g/L and the Sorbic acid [2, 3] was under 0.1 g/L. For the same compound, the Succinic acid [2, 3] was under 0.1 g/L, the glucose [2, 3] was 2.3 g/L and the “% enantiomeric excess: (R − S)/(R + S)” value ([2]; 0.05% (w/v) added, 25-35 hours, pH 6.5, 37° C., listed as tetradacanoyl-lactylate) was about 100%.

`CCCCCCCCCCCCCCOS(=O)(=O)[O-].[Na+]` [Sodium tetradecyl sulfate, reference compound] was tested, and the MIC value [1] was 0.001 % (w/v).

With `CCCCCCCCCCCC(=O)OC(C)C(=O)O` (stereo not shown) [Dodecanoyl-lactylate] the MIC value [1] was 0.002 % (w/v).

`CCCCCCCC(=O)OC(C)C(=O)[O-].[Na+]` (stereo not shown) [Octanoyl-lactylate] was tested, and the MIC value [1] was 0.05 % (w/v).

For `CCCCCCCCCCCCCCCC(=O)OC(C)C(=O)O` (stereo not shown) [Hexadecanoyl-lactylate], the MIC value [1] was 0.002 % (w/v).
